Results on one sequence are retold here after publication PMC12686126, “LL‐37 Inhibits TMPRSS2‐Mediated S2' Site Cleavage and SARS‐CoV‐2 Infection but Not Omicron Variants” (Cell Proliferation, 2025).

In assay [1] the test system is SARS‐CoV‐2^N764K spike pseudovirus. Type of assay: cell-based.
The test system of another assay is SARS‐CoV‐2 spike. It counts as cell-based.
For assay [2], the system named is spike with N764K mutation. It counts as cell-based, SARS‐CoV‐2.
The test system of assay [3] is spike with D796Y mutation. Type of assay: cell-based, SARS‐CoV‐2.
Assay [4] relates to spike with N969K mutation. Type of assay: cell-based, SARS‐CoV‐2.
The test system of assay [5] is S2 subunit with D796Y mutation. It counts as binding, SARS‐CoV‐2.
The subject of assay [6] is S2 subunit with N969K mutation. It counts as binding, SARS‐CoV‐2.
The test system of assay [7] is SARS‐CoV‐2 spike S2 subunit. Type of assay: cell-based.
Assay [8] deals with spike with N764K mutation. It counts as cell-based, SARS‐CoV‐2. This is another data set of the same source.
Assay [9] deals with SARS‐CoV‐2 spike pseudovirus. It counts as cell-based.

With “LLGDFFRKSKEKIGKEFKRIVQRIKDFLRNLVPRTES [LL‐37]”, the “reduction of RLU induced by SARS‐CoV‐2^N764K” value in [1] is recorded as “did not significantly reduce”. The “cell–cell fusion activity after LL‐37 pretreatment” value with SARS‐CoV‐2 spike is recorded as “significantly lower cell–cell fusion activity”; in assay [2], “not the spike‐expressing cells with N764K mutation”; in [3], “significantly lower cell–cell fusion activity”; in [4], “significantly lower cell–cell fusion activity”. The “binding of S2 subunit to immobilised LL‐37” value in assay [5] and in [6] was “no difference or even enhanced binding” in each case. Further, the “effect on polybasic cleavage site (S1/S2 boundary)” value in assay [7] is “excluded the effect of LL‐37 on the polybasic cleavage site”. Moreover, the “generation of S2' fragment” value in assay [8] is on record as “did not significantly reduce”. In addition, in [9], the “inhibition of RLU only caused by overexpression of TMPRSS2” value is listed as “about 70%”. The “inhibition of pseudovirus entry into 293T‐A2T2 cells” value in [9] was 52%.
